The nature of experiment [1]: Alexa488-SA-labelled IM1-IM6 binding to metal-charged NTA-coated plate (x2B d). The conditions noted are these: no peptide background = 1.0. The method, then: NTA-metal-affinity fluorescence assay was performed using 96-well NTA-metal-coated plates readily available from commercial sources such as Qiagen (Germantown, MD). NTA was charged with ferrous or ferric iron, zinc, copper, calcium, vanadium, ruthenium, cobalt, titanium, manganese or other metals. 400 ng of FITC-labeled immodulator peptide (or biotinylated immodulator peptide complexed to Alexa-488-labeled streptavidin) in PBS buffer was added per plate. After incubation at room temperature for 60 minutes, excess peptide was washed off and peptide was detected by measuring fluorescence (excitation 490 nm, emmission 525 nm) in a fluorometer. • (a) Using FITC-labeled IM3 peptide (1 ug/well) in the fluorescent binding assay: • EDTA-treated control: 2,251±1,186 • Ferrous iron: 170,441±11,264 (p<0.001)* • Copper: 13,644±5566 (p<0.05)* • Calcium: 48,822±11,990 (p<0.01)* • *p values are relative to EDTA-treated control • (b) Competition binding assay to ferrous iron, calcium, copper and zinc-charged NTA-coated plates using FITC-labeled IM3 peptide (0.5 uM) and 8× (4 uM) unlabelled competitor peptides IM3N1, IM3N2 (*all comparisons to PBS control are p<0.01); # fluorescent value of binding to […] was set at 100.
Ferrous iron # (100±2.6*); Control (no metal): 6.4±3.1; Ferric iron: 94.1±6.6*; Calcium: 47.6±3.7*; Vanadium: 53.9±5.5*; Manganese: 54.4±11.2*; Cobalt: 25.4±2.3*; Copper: 58.4±6.4*; Zinc: 71.4±8.3*; Ruthenium: 67.8±8.3*; (d) Alexa488-SA-labelled immodulator peptide IM1, IM2, IM3, IM4, IM5, IM6 (400 ng/well) were bound to NTA-coated plate charged with the indicated metals: # background (no peptide) control set to 1.0;*p<0.05, **p<0.01 vs “no peptide”

Experiment [2] is described as follows: Iron binding of separately labeled peptides (x2E e). To be noted: each peptide labeled separately; IM3 = 100; ferric iron. The procedure: Experiments were conducted by the procedure described above. Ferric iron-charged NTA-coated 96-well plates were used as described. 1 ug/well immodulator peptide complexed to Alexa-488-labeled streptavidin in PBS buffer was added (60 min at room temperature). The plate was washed and counted in a standard fluorometer (excitation/emission: 485/525 nm). The results (fluorescence) show improved iron-binding by the three peptides extended C-terminally by the AVD, (dA)VD, and FVS tripeptides. **p<0.01 vs IM3 control IM3: 200±29; IM4: 45±37**; IM5: 130±77; IM3AVD: 434±29**; IM3dAVD: 418±28**; IM3FVS: 371±33** • (c) Competition assay. The same procedure was used as the preceding experiment, except that 375 ng/well labeled IM3 peptide was used, plus 10× of the indicated unlabeled peptide. ‘No competing peptide’ control value was set to 100. *p<0.05 vs “no peptide” control Competing Peptide/Fluorescence • None: 100±38; IM4: 125±26; IM3: 63±27*; IM5: 40±14*; IM3AVD: 10±28* • (d) Competition assay. The same procedure was used as the preceding experiment, except that labeled IM3AVD peptide was used. **p<0.01 vs “no competing peptide” control • None: 100±9; IM4: 144±44; IM3: 35±16**; IM5: 30±19**; IM3AVD: 9±19** • (e) The same procedure was used as the preceding experiment, except that each peptide was labeled with Alexa-488-labeled streptavidin in PBS buffer and used separately. Binding to IM3 was set to =100. *p<0.05, **p<0.01 vs IM3 control. (Labeled Peptide/Fluorescence) IM1: 1.8±0.4**; IM2: 3.0±1.8**; IM3: 100.0±16.8; IM4: 7.2±1.7*; IM5: 86.7±6.4; IM6: 85.9±14.9; IM3AVD:137.7±11.8*; IM3dAVD:147.4±22.9*; IM3FVS: 101.5±10.5.

The nature of experiment [3]: Binding to heparin-agarose spin column (x3D). To be noted: 1 ug SA488-labelled peptide. The procedure:
1 ug Streptavidin-Alexa 488 conjugate (SA488)-labelled IM peptide in PBS buffer was loaded on a spin column packed with 0.2 ml bed volume heparin-agarose (G-Biosciences, St. Louis, MO). The column was centrifuged for 2 min at 2,000 G and the flow-through was collected. The column was then washed with 0.3 ml 1% BSA in PBS buffer and the column spin repeated. Flowthrough and wash were pooled and duplicate 20 uL aliquots counted in a standard fluorometer (excitation/emission 485/525 nm). Results are expressed as percentage of input counts that bound the heparin-agarose column, versus flowthrough. Percent counts bound to heparin-agarose resin are shown below. IM3, IM5 and IM6 peptides bind heparin-agarose in this assay.

The nature of experiment [4]: FITC-PI(4,5)P2 binding to plate-bound peptide with calcium (x9A). The method, then:
Immodulator peptides IM1, IM3 and IM5 (400 ng/well) in PBS were bound to streptavidin-coated 96-well plates at room temperature for 60 minutes, in the presence or absence of 500 uM calcium chloride. Each well also received 200 ng cold PPI plus 10 ng FITC-labeled PI(4,5)P2 or PI(4)P1. The tables below show the relative fluorescence (with/without calcium background) expressed as a percentage of the highest binder, FITC-PI(4,5)P2+cold PI(3,5)P2, which was 2,496 fluorescence units. Background binding without calcium was, in all cases, 200-300 fluorescence units.

[5] abbreviates: cold PPI: None, 500 uM calcium chloride.

Marks after values point to notes of the source that are not given here. Peptide text beside a SMILES is read from it.

In the case of `CSCC[C@H](NC(=O)[C@H](CO)NC(=O)[C@@H](NC(=O)[C@H](CCC(=O)O)NC(=O)[C@H](CS)NC(=O)[C@H](CCC(N)=O)NC(=O)[C@H](CCCNC(=N)N)NC(=O)[C@H](CO)NC(=O)[C@H](Cc1c[nH]cn1)NC(=O)[C@H](Cc1ccc(O)cc1)NC(=O)[C@H](Cc1ccccc1)NC(=O)CNC(=O)[C@H](CC(N)=O)NC(=O)[C@@H](N)CCCCN)[C@@H](C)O)C(=O)N[C@@H](CC(=O)O)C(=O)NCC(=O)N[C@@H](CCC(=O)O)C(=O)N[C@@H](C)C(=O)NCC(=O)N[C@@H](CC(C)C)C(=O)N[C@@H](CS)C(=O)N[C@@H](Cc1c[nH]c2ccccc12)C(=O)O` [IM1] (H-KNGFYHSRQCETSMDGEAGLCW-OH; N-terminus and C-terminus assumed), the fluorescence was 1.1 ± 0.1 in experiment [1] (Calcium); 3.0 ± 0.1** in experiment [1] (Copper); 1.2 ± 0.3 in experiment [1] (Ferrous iron, 400 ng/well); 1.1 ± 0.2 in experiment [1] (Zinc). Also, the “fluorescence of labeled peptide” value in experiment [2] was 1.8±0.4. Moreover, the “Percent Flowthrough” value in experiment [3] is recorded as 100.0%. The Percent retained in experiment [3] stood at 0%. Also, the “relative fluorescence, FITC-PI(4,5)P2 bound” value in experiment [4] (cold PPI: 3,4,5-P3, calcium) was 0.1 percentage of the highest binder; in experiment [4] (cold PPI: 3,4-P2, calcium) it was 1.1 percentage of the highest binder; in experiment [4] (cold PPI: 3,5-P2, calcium), 4.3 percentage of the highest binder; in experiment [4] (cold PPI: 3-P1, calcium), 3.1 percentage of the highest binder; in experiment [4] (cold PPI: 4,5-P2, calcium), 0.8 percentage of the highest binder; in experiment [4] (cold PPI: 4-P1, calcium), 1.3 percentage of the highest binder. Also, the “relative fluorescence, FITC-PI(4,5)P2 bound” value in experiment [4] (cold PPI: 5-P1, calcium) is 0.5 percentage of the highest binder; in experiment [4] (setting [5]), 1.6 percentage of the highest binder.

On to `CC[C@H](C)[C@H](NC(=O)CNC(=O)[C@H](CCCNC(=N)N)NC(=O)[C@H](CCCCN)NC(=O)[C@H](CCCNC(=N)N)NC(=O)CNC(=O)[C@H](CCCNC(=N)N)NC(=O)[C@H](CO)NC(=O)[C@@H]1CCCN1C(=O)[C@H](CCCCN)NC(=O)[C@H](CS)NC(=O)[C@H](CCC(N)=O)NC(=O)[C@H](CCCCN)NC(=O)[C@H](CCCNC(=N)N)NC(=O)[C@H](CCCCN)NC(=O)[C@H](Cc1ccc(O)cc1)NC(=O)[C@H](Cc1ccccc1)NC(=O)CNC(=O)[C@H](CCCCN)NC(=O)[C@@H](N)CCCNC(=N)N)C(=O)N[C@@H](CS)C(=O)N[C@@H](Cc1c[nH]c2ccccc12)C(=O)O` [IM5] (H-RKGFYKRKQCKPSRGRKRGICW-OH; N-terminus and C-terminus assumed), for which the fluorescence in experiment [1] (Calcium) is on record as 23.4 ± 0.8**; in experiment [1] (Copper), 5.6 ± 0.1**; in experiment [1] (Ferrous iron, 400 ng/well), 20.5 ± 1.5**; in experiment [1] (Zinc), 23.6 ± 0.1**. Further, the “fluorescence of labeled peptide” value in experiment [2] is recorded as 86.7±6.4. Besides, the “Percent Flowthrough” value in experiment [3] is 3.6%. The same compound gave a Percent retained in experiment [3] of 96.4%. For the same compound, the “relative fluorescence, FITC-PI(4,5)P2 bound” value was 0.2 percentage of the highest binder in experiment [4] (cold PPI: 3,4,5-P3, calcium); 12.3 percentage of the highest binder in experiment [4] (cold PPI: 3,4-P2, calcium); 16.9 percentage of the highest binder in experiment [4] (cold PPI: 3,5-P2, calcium); 0.3 percentage of the highest binder in experiment [4] (cold PPI: 3-P1, calcium); 7.6 percentage of the highest binder in experiment [4] (cold PPI: 4,5-P2, calcium); 2.3 percentage of the highest binder in experiment [4] (cold PPI: 4-P1, calcium). Besides, the “relative fluorescence, FITC-PI(4,5)P2 bound” value in experiment [4] (cold PPI: 5-P1, calcium) is reported as 2.7 percentage of the highest binder; in experiment [4] (setting [5]), 2.6 percentage of the highest binder.

As for `CC(C)C[C@H](NC(=O)[C@H](C)NC(=O)[C@@H]1CCCN1C(=O)[C@H](Cc1c[nH]cn1)NC(=O)[C@H](CS)NC(=O)[C@H](CCC(N)=O)NC(=O)[C@H](CCCCN)NC(=O)[C@@H]1CCCN1C(=O)[C@H](Cc1c[nH]cn1)NC(=O)[C@H](Cc1ccccc1)NC(=O)[C@H](CC(N)=O)NC(=O)CNC(=O)[C@H](CC(N)=O)NC(=O)[C@@H](N)CCCNC(=N)N)C(=O)N[C@@H](CC(=O)O)C(=O)NCC(=O)N[C@@H](CCC(N)=O)C(=O)N[C@@H](CCCNC(=N)N)C(=O)NCC(=O)N[C@@H](CCCCN)C(=O)N[C@@H](CS)C(=O)N[C@@H](Cc1c[nH]c2ccccc12)C(=O)O` [IM4] (H-RNGNFHPKQCHPALDGQRGKCW-OH; N-terminus and C-terminus assumed), the fluorescence in experiment [1] (Calcium) is reported as 1.0 ± 0.1; in experiment [1] (Copper), 5.7 ± 0.1**; in experiment [1] (Ferrous iron, 400 ng/well), 2.8 ± 1.4; in experiment [1] (Zinc), 1.2 ± 0.2. The “fluorescence of labeled peptide” value in experiment [2] turned out to be 7.2±1.7. In experiment [3], the “Percent Flowthrough” value came out at 100.0%. Moreover, the Percent retained in experiment [3] was 0%.

As for `CSCC[C@H](NC(=O)[C@H](CCCCN)NC(=O)[C@H](CS)NC(=O)[C@H](CCC(N)=O)NC(=O)[C@H](CCCCN)NC(=O)[C@H](CC(C)C)NC(=O)[C@H](CC(N)=O)NC(=O)[C@H](Cc1ccc(O)cc1)NC(=O)[C@H](CC(C)C)NC(=O)CNC(=O)[C@H](Cc1c[nH]cn1)NC(=O)[C@@H](N)CCCCN)C(=O)N[C@@H](CO)C(=O)N[C@@H](CC(C)C)C(=O)N[C@@H](CC(N)=O)C(=O)NCC(=O)N[C@@H](CCC(N)=O)C(=O)N[C@@H](CCCNC(=N)N)C(=O)NCC(=O)N[C@@H](CCC(=O)O)C(=O)N[C@@H](CS)C(=O)N[C@@H](Cc1c[nH]c2ccccc12)C(=O)O` [IM2], the fluorescence in experiment [1] (Calcium) is reported as 1.7 ± 0.2*; in experiment [1] (Copper) it was 3.6 ± 0.1**; in experiment [1] (Ferrous iron, 400 ng/well), 1.4 ± 0.3; in experiment [1] (Zinc), 1.1 ± 0.1. The “fluorescence of labeled peptide” value in experiment [2] stood at 3.0±1.8. Further, the “Percent Flowthrough” value in experiment [3] was 100.0%. The Percent retained in experiment [3] amounted to 0%.
